Here are results for two molecules from paper PMC10818931, “In Vitro Evaluation of Drug–Drug Interaction Potential of Epetraborole, a Novel Bacterial Leucyl-tRNA Synthetase Inhibitor” (Pharmaceuticals, 2024).

Values after ≈ are worked out from the molar mass of the structure shown. Read-outs that look alike come from different tables or passages of the source.

A short description of data set [1]: Solubility in hepatocyte incubation medium. The class given is physicochemical. The note with it: aqueous buffer, read-out: Soluble in hepatocyte incubation medium at.
The test system of data set [2] is HEK 293 or MDCK cell lines. The data set is described as follows: Cytotoxicity in transporter inhibition studies. The class given is cell-based. The note with it: at the concentrations tested in transporter inhibition studies.
In the next data set the target is T1, BCRP (Homo sapiens, UniProt Q9UNQ0).
T1 construct: host or cells: MDCK (BCRP-MDCK)
T1 sequence (Q9UNQ0 1-655): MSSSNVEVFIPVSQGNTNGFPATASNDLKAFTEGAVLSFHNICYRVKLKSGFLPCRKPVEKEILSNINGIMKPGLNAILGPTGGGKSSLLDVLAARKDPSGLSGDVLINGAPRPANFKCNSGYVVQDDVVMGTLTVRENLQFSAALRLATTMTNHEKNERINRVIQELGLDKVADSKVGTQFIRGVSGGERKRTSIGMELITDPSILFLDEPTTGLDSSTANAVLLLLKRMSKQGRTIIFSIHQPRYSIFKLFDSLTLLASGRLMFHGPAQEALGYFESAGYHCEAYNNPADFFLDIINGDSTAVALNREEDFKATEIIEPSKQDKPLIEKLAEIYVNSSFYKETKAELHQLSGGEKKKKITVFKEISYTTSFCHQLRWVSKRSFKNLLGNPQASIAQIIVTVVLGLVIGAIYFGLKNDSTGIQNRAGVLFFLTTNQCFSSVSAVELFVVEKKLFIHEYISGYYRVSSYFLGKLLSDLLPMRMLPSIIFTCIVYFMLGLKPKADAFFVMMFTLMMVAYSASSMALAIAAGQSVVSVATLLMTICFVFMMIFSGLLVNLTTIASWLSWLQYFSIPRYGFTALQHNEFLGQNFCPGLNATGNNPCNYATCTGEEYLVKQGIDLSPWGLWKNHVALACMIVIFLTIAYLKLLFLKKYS
Briefly: Substrate potential for BCRP, bidirectional permeability in BCRP-MDCK. The class given is in vitro ADME. The note with it: for Concentration in the receiver compartment: 5 µM, BCRP-MDCK and MDCK cells, A to B and B to A, Papp and efflux ratio could not be calculated; for as a Substrate: BCRP.

The target in another data set is T2, MATE1 (Homo sapiens, UniProt Q96FL8).
T2 construct: host or cells: MDCK
T2 sequence (Q96FL8 1-570): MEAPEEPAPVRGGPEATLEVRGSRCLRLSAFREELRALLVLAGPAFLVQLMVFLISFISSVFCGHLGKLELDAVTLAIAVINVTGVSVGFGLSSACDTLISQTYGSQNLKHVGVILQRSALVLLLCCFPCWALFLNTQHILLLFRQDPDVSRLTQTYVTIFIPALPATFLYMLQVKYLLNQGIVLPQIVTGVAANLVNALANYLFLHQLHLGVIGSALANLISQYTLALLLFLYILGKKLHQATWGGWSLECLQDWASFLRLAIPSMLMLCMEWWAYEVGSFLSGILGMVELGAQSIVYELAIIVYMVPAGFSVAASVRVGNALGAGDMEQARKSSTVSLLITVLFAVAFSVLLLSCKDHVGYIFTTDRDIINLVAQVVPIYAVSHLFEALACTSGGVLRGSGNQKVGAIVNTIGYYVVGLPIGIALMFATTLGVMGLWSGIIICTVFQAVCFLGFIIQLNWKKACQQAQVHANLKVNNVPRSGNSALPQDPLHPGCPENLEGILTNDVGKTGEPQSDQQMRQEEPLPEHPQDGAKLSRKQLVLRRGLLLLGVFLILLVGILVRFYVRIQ
Briefly: Transporter inhibition. The class given is in vitro ADME. The note with it: read-out: as an Inhibitor, IC50.

The next data set addresses T3, OCT2 (Homo sapiens, UniProt O15244).
T3 construct: host or cells: MDCK
T3 sequence (O15244 1-555): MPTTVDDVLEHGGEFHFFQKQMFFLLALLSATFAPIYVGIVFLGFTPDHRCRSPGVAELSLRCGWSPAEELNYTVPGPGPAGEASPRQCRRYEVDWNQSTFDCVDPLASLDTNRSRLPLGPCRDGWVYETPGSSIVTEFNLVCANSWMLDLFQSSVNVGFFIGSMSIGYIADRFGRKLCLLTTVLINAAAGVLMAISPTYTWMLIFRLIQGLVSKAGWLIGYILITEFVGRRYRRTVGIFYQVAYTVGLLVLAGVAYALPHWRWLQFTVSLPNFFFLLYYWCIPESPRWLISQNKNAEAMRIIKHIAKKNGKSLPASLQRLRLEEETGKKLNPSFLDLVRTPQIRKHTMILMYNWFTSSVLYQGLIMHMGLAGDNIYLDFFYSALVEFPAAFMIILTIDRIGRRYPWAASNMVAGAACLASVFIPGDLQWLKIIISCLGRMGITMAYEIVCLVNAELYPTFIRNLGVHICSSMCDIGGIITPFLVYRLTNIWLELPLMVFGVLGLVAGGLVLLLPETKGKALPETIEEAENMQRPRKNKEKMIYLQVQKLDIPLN
Briefly: Substrate potential in transporter-transfected MDCK cells. The class given is in vitro ADME. Here is the method:
The uptake of a probe substrate of each transporter was conducted in parallel with the test article in separate wells of the same batch of vector control and transporter-transfected cells. Cells were incubated at 37 °C with 5% CO2 with 500 μL of dosing solution for different periods of time.

A short description of data set [3]: Solubility in transport buffer. The class given is physicochemical. The note with it: aqueous buffer, read-out: Soluble up to.
For data set [4] the following is noted: cited from earlier work.
The test system of a further data set is Caco-2 cell monolayers. The data set is described as follows: Apparent permeability through Caco-2 cell monolayers. The note with it: in vitro. As for the experimental part: (§1) ^14C-EBO permeability in Caco-2 Cells (MDR1/Protein Glycoprotein or P-gp) was determined using methodologies described previously. The apparent permeability of ^14C-EBO was determined in both the apical to basolateral and the basolateral to apical directions, in triplicate, at final concentrations of 1, 10, and 100 μM. Cell monolayers were incubated with ^14C-EBO at 37 °C for 1, 2, 3, and 4 h. The transepithelial electrical resistance (TEER) values of the monolayers prior to and following each experiment were measured to confirm the integrity of the Caco-2 cell monolayers. The apparent permeability of ^14C-EBO (at a final concentration of 10 μM) was determined in both the apical to basolateral and basolateral to apical directions under the same conditions as previously described in the presence of P-gp inhibitors cyclosporine A (10 μM) and verapamil (100 μM) in the donor compartment.

Experiment in data set [5]: as above
The conditions noted are these: human, Caco-2. Here is the method:
as §1

The mark [6] stands for this setting: EBO 500 mg PO q24h, healthy subjects, Study EBO-101, printed with "(unbound fraction)", read-out: Steady-state systemic total Cmax.
The mark [7] stands for this setting: human study of radiolabeled EBO.

As for `NC[C@H]1OB(O)c2c(OCCC(=O)O)cccc21` [M3], the solubility in data set [1], in data set [3] (transport buffer pH 7.4) and in data set [3] (transport buffer pH 8.5) was 250 µM (≈ 62.8 µg/mL) throughout. Further, the Cytotoxicity entry in data set [2] was “Neither EBO nor M3 induced any cytotoxicity”. For the same molecule, the “Concentration in the receiver compartment” value at BCRP was “below the lower limit of quantification”. Also, the “as a Substrate” value on BCRP was “No”; on OCT2, “not a substrate and No”. The IC50 at MATE1 is > 250 µM. The Cmax in data set [4] (setting [6]) was 20 µM. For the same molecule, the “Excretion (in words)” value in data set [4] (setting [7]) is “excreted predominantly in the urine”. Besides, the “Further metabolism (in words)” value in data set [4] (setting [7]) was “not subject to further metabolism”.

Turning to `NC[C@H]1OB(O)c2c(OCCCO)cccc21` [EBO, Epetraborole], the solubility in data set [1] came out at 20000 µM (≈ 4740 µg/mL); in [3] (transport buffer pH 7.4), 17000 µM (≈ 4030 µg/mL); in [3] (transport buffer pH 8.5) it was 100 µM (≈ 23.7 µg/mL). In addition, the “Permeability (in words)” value in the data set with Caco-2 cell monolayers is on record as “low permeability”. For the same molecule, in [5], the apical-to-basolateral permeability (Papp A→B) was ≤ 0.31 ×10⁻⁶ cm/s. Also, the Papp B→A in data set [5] is ≤ 0.35 ×10⁻⁶ cm/s. In addition, the Cytotoxicity entry in [2] is recorded as “Neither EBO nor M3 induced any cytotoxicity”. The “Concentration in the receiver compartment” value on BCRP is reported as “below the lower limit of quantification”. For the same molecule, the “as a Substrate” value at BCRP was “No”; on OCT2, “could potentially be a substrate and Yes”. In addition, at MATE1, the IC50 was > 100 µM. The Influx ratio on OCT2 (5 µM) is recorded as 3.44. In addition, the figures for the Cmax in data set [4] (500 mg/day PO human clinical dose) and in [4] (setting [6]) were 2850 ng/mL and 12 µM, respectively.

As a reminder, the IC50 is the concentration that gives 50% inhibition. What is called Cmax is the maximum level reached in the sampled fluid or tissue. As usually defined, the Papp A→B is how fast a substance crosses the layer from the apical side. As usually defined, the Papp B→A is the apparent permeability from the basolateral to the apical side of a cell layer.
